Non-standard residues stand in square brackets, D forms with d. Residues, ends and D or L forms follow the SMILES beside them. *: point of attachment. 1Nal = N[C@@H](Cc1cccc2ccccc12)C(=O)O; Leu(ol) = CC(C)C[C@H](N)CO; Cbz = O=C(OCc1ccccc1)*
Point of comparison: `O=C1C2=C(C=C3OCCC13)CCCO2` (stereo not drawn), melting point 101 °C. Against it:
- Clc1ccc(-c2cc(C3CCN(Cc4ccccc4Cl)CC3)n[nH]2)cc1 — higher, 137 to 139 °C
- O=C1C=Cc2ccc3ncccc3c2C1=O — higher, 215 to 216 °C
- CCOC(=O)c1ccccc1C(=O)c1ccc2c(c1)C(C)(C)C(C)C2(C)C (stereo not drawn) — lower, 56 to 57 °C
- COc1ccccc1N1CCN(C(=O)Nc2nc3ccccc3nc2OC)CC1 — higher, 177 to 178 °C
- O=[N+]([O-])c1ccc(Oc2c(Cl)cc(S(=O)(=O)Nc3nc(-c4cccc([N+](=O)[O-])c4)cs3)cc2Cl)cc1 — higher, > 250 °C
- COCCNc1nc(N)nc(-c2cc(Cl)ccc2Cl)n1 — higher, 195 to 197 °C
- CC(C)C[C@@H](CO)NC(=O)[C@H](Cc1c[nH]cn1)NC(=O)[C@H](Cc1cccc2ccccc12)NC(=O)OCc1ccccc1 (Cbz-[1Nal]-His-[Leu(ol)]) — higher, 157 to 159 °C
- CCOc1cc(C(CC#N)N2Cc3c(Cl)ccc(NC(=O)C4CC4)c3C2=O)ccc1OC (stereo not drawn) — higher, 200 to 202 °C
- CC1C(=O)N(c2ccc([N+](=O)[O-])cc2)C(=S)N1c1ccc(Cc2ccccc2)cc1 (stereo not drawn) — higher, 200 °C
- NC(=O)NN=Cc1ccc(Oc2ccncc2)cc1 — higher, 212 to 213 °C
- COc1ccc(-n2c3ccccc3c3cc(C=C(C#N)c4ccc(F)c(F)c4F)ccc32)cc1 — higher, 124 to 126 °C
- O=c1c2cc(F)c(N3CCCC3)cc2n(-c2ccc(F)cc2F)c(=O)n1OCc1ccccc1 — higher, 212 to 214 °C
- CC(C)(C(=O)OCc1ccccc1)N1COC(CO)=C(c2ccccc2)C1=O — higher, 115 to 116 °C
- CCc1c(C(=O)O)nn(-c2ccc(Cl)cc2Cl)c1-c1ccc(Cl)s1 — higher, 207 to 208 °C
- Clc1cc2nc(Br)c(Br)nc2cc1Cl — higher, 169 to 170 °C
- CCOC(=O)c1cn(CC)c2nc(Cl)c(F)cc2c1=O — higher, 150 to 160 °C
- O=C(O)c1ccccc1C(=O)c1ccc(O)c(-c2ccccc2)c1 — higher, 273 °C
- CC(C)(C)NC(=O)c1ccccc1O — lower, 78 to 79.5 °C
- CN1CCN(CCCNc2ncc3c(n2)-c2ccccc2C(c2ccc(Cl)c(Cl)c2)C3)CC1 (stereo not drawn) — higher, 135 to 136 °C
- CNC(=S)NN=C(CCCCl)c1ccccc1 — lower, 94 to 96 °C
- CCOCc1nc2c(N)nc3cc(-c4cccnc4)ccc3c2n1CC(C)C — higher, 180 to 182 °C
- COc1ccccc1P(CC(CCCCCCO)CP(c1ccccc1OC)c1ccccc1OC)c1ccccc1OC — lower, 47 to 50 °C
- CC=C1c2ccccc2CC(=NO)c2ccccc21 — higher, 128 to 131 °C
- O=S1(=O)NCN(CCF)c2cc(Cl)c(Cl)cc21 — higher, 156 to 157 °C
- CCN(CC)C(=O)NCCc1cccc(-c2nc(=O)c3ccccc3s2)n1 — higher, 175 to 176 °C
- Cc1cc(-n2nn[nH]c2=O)c(Cl)cc1Cl — higher, 135 to 137 °C
- CCO[C@@H](Cc1ccc(O)cc1)C(=O)O — higher, 105 °C
- CCC1(c2cccs2)OCC(=O)Nc2ccc(-c3ccc(F)c(C#N)c3)cc21 (stereo not drawn) — higher, 197 to 199 °C
- COC(=O)CCCC#Cc1cc(Cl)ccc1NS(=O)(=O)c1ccc2nc(N)sc2c1 — lower, 61 to 65 °C
- CC(NC(=O)c1sc2ccc(C(F)(F)F)cc2c1O)C(O)(c1ccccc1)c1ccccc1 (stereo not drawn) — higher, 129 to 130 °C
- CC(Cc1ccc(Oc2cc(N3CCN(Cc4ccccc4)CC3)nc(NCc3ccccc3)n2)cc1)(Oc1ccccc1)C(=O)O (stereo not drawn) — higher, 104 to 106 °C
- COc1ccc(C2=C(C(=O)O)N(Cc3ccc4c(c3)OCO4)S(=O)(=O)c3ccccc32)cc1OC — higher, 267 to 268 °C
- C=CCOc1ccc2c(c1)CCNC2=O — higher, 105 to 107 °C
- CCCCCCCCCC(=O)NC(=O)OCc1nc(C(C)C)c(Sc2cc(Cl)cc(Cl)c2)n1CC — higher, 102 to 103 °C
- CCOC(=O)/C(=N\OCc1c(Cl)cccc1Cl)c1csc(N)n1 — higher, 171 to 172 °C
- O=C1NC(=O)C(Cc2ccc(OCCn3ncc4ccccc4c3=O)cc2)S1 (stereo not drawn) — higher, 165 °C
- Clc1ccc2c(c1)N=C1C=CC=CN1CO2 — higher, 175 to 177 °C
